Results as given in US20210298297A1, “MOSQUITO ATTRACTANTS” (Wageningen Universiteit, priority 2018, published 2021).

How the values were obtained:
[1] = system: Anopheles coluzzii; experiment: Dual-port olfactometer preference test of IAC and IAC blends; type: in vivo; settings: for behavioural response on supplementing parasite-free odour with the IAC alone: individual IAC, at least two concentrations, with parasite-free odour (socks) vs parasite-free odour alone
Procedure: Six IAC (heptanal, octanal, nonanal, (E)-2-octenal, (E)-2-decenal and 2-octanone) were tested in a background of odour from the worn nylon socks of twelve parasite-free children (18S qPCR confirmed). Each sock pair was cut into twelve strips after removing the foot part, then 12 bundles were made, each containing a strip from each individual. Bundles were stored at −20° C. until, and between, experiments. IAC were positioned downwind and separated from sock bundles by a metal grid, ensuring no contact. Parasite-free odour (bundles) was tested with or without individual IAC (in 10 μL hexane on filter paper) and against the same but with hexane alone.
Next, we verified whether the IAC could improve a mosquito lure for monitoring or mass trapping of Anopheles. Heptanal, the most promising candidate from the above experiment, was tested as well as two blends: Plas 5 contained the IAC that were associated with parasitological positivity (nonanal, heptanal, octanal, (E)-2-decenal and (E)-2-octenal), and Plas 6 additionally contained the gametocyte-associated 2-octanone (FIG. 3). Each of Plas 5 and Plas 6 were made up in hexane by weighing the appropriate amounts of constituent compounds into a volumetric flask. […] Plas 5 and Plas 6 were tested with the synthetic lure MB5^36 at four concentrations, each decreasing by a factor of 10 from the 100% concentration by serial dilution.
MB5 was presented on nylon strips as described in Menger et al. (2014)^36 (except the five compounds were incubated onto a single 5×26.5 cm nylon strip instead of five narrower strips). 10 μl of the Plas5 or Plas6 blend at 100% or serial dilution was pipetted onto a filter paper and added in the same olfactometer trap.
A triple chamber dual-port olfactometer^59 was used to test the preference of 30 five- to eight-day-old female, non blood-fed Anopheles coluzzii (Suokoko strain^21, rearing procedures as published previously^21) for parasite free odour or MB5, supplemented with IAC or IAC blends, against background odour alone (parasite-free odour or MB5). Mosquitoes were maintained in a release cage prior to testing (for 16-22 hours). Experiments took place during the last four hours of the scotophase under near-dark conditions (<1 lux). Mosquitoes were allowed to fly for 15 minutes, then those that had entered the traps with test/control odours were counted. Each IAC/concentration combination was tested eight-nine times on different days, and each Plas concentration 10-11 times on different days, rotating treatments between the left and right port of the olfactometer. Climatic data (R.H., temperature and air pressure) were recorded in the flight chambers and in the surrounding room.
Generalized linear models (GLMs) were used to test the effect of odours (individual IAC/heptanal/Plas blends) on relative attractiveness (the proportion of mosquitoes selecting the test odour). GLMs were run as described above (statistical analysis, attractiveness of ‘infected odour’ (socks) by cage assays), testing parameters associated with the set-up as additional factors or covariates in the model, and retaining when significant (P<0.05, F-test). Sets of compounds were run in separate models. SPSS® was used for the analyses.

[2] = system: Anopheles coluzzii antennae; experiment: Gas chromatography-electroantennography (GC-EAG) of pooled odour samples; settings: analytes in pooled foot odour extracts; >3 responses of 6/7 repetitions = EAG-active
Procedure: Porapak filters were eluted using re-distilled diethyl ether (750 μL), and, to approximate an “average” odour per category, extracts were pooled according to the individual's parasitological status: (1) Plasmodium infection, no gametocytes (2) high-density P. falciparum gametocytes (3) parasite-free individuals, (4) Plasmodium infection, sub-microscopic P. falciparum gametocytes. Aliquots (400 μL) of extracts were mixed, then concentrated (to 60 μL) under a stream of nitrogen (charcoal-filtered). Glassware, charcoal filters and PTFE tubing were cleaned as before.
GC-EAG was conducted during the scotophase, using four- to eight- day-old, unfed female Anopheles coluzzii (N′gousso strain^56). Adults were maintained at 70% RH, with a 12 h light/dark cycle (scotophase 09:00-21:00) and access to 50% glucose solution. The order of testing blends was determined by a 5×5 Latin square (including control blend). The mosquito head was dissected, and the palps, proboscis, and half of the terminal (13th) antennal flagellomere cut off. The indifferent electrode was inserted into the back of the head and the antennal tips guided into the recording electrode to complete the circuit (FIG. 3). Electrodes were hand-pulled glass tips inserted over silver wire (diameter 0.37 mm; Harvard Apparatus, Edenbridge, UK) and filled with Ringers' solution^15. […] The eluate was split to the FID detector and EAG interface at a ratio of 1:1. At the EAG interface, the eluate passed from the heated splitter column to a stream of charcoal filtered, humidified air (flow rate 400 mL/min). This airflow was directed over the antenna at a distance of 5 mm. The signal was amplified ×10,000 by the Intelligent Data Acquisition Controller-4, and signals were analysed using EAD 2000 software (both Syntech®, Hilversum, The Netherlands). Responses were signified by a depolarisation of sufficient amplitude. Peaks that elicited responses in more than 3, of the 6/7 total repetitions, were considered to be EAG-active.

Row | SMILES | behavioural response on supplementing parasite-free odour with the IAC alone [1] | proportion of mosquitoes selecting the test odour (GLM, 95 CI) ([1]; 10 μL heptanal at 10^−8 g/mL added to parasite-free odour (socks) vs parasite-free odour alone) | effect on attractiveness of parasite-free odour ([1]; heptanal at 10^−7 g/mL added to parasite-free odour vs parasite-free odour alone) | attractiveness of MB5 supplemented with the compound relative to control MB5 ([1]; three concentrations, data not shown) | antennal (EAG) response [2]
1 | CCCCCCC(C)=O [2-octanone] | did not induce altered behavioural responses | – | – | – | –
2 | CCCCCCC/C=C/C=O [(E)-2-decenal] | did not induce altered behavioural responses | – | – | – | –
3 | CCCCC/C=C/C=O [(E)-2-octenal] | did not induce altered behavioural responses | – | – | – | –
4 | CCCCCCC=O [heptanal] | – | 0.60-0.84 | no effect | equally attractive | elicit antennal response
5 | CCCCCCCCC=O [nonanal] | did not induce altered behavioural responses | – | – | – | elicit antennal response
6 | CCCCCCCC=O [octanal] | did not induce altered behavioural responses | – | – | – | elicit antennal response
